Source: US7507739B2, “6-[(substituted)phenyl]triazolopyrimidines as anticancer agents” (Wyeth, priority 2003, dated 2009)
Marks after values point to notes of the source that are not given here.

Key:
HeLa cells = assay: Cell cycle analysis with HeLa cells; format: cell-based, human; details: 18 hr
Experimental: HeLa cells are harvested by trypsinization, washed, counted and distributed to wells of 12-well plates at 125,000 cells per well in 2 mL medium. Cells are cultured overnight. […] Cells are continued in culture for 18 hr after compound addition, then cells in each well are harvested (taking care to recover both adherent and non-adherent cells) and processed using the CycleTEST PLUS kit (Becton Dickinson Immunocytometry Systems, San Jose, Calif.). Flow cytometry is done with a FACSort instrument (Becton Dickinson).
This procedure measures the percentages of cells in a population that are in the G1, S, and G2/M phases of the cell cycle. It utilizes staining of cell nuclei with propidium iodide and analysis by flow cytometry.

[1] = test system: U87-MG Human Glioblastoma; assay: Human tumor xenograft test, U87-MG; format: in vivo, athymic mice; details: for T/C on day 0 / T/C on day 3 / T/C on day 7 / T/C on day 10 / T/C on day 13 / T/C on day 17: U87-MG, days 1, 5, 9
Experimental: The ability of compounds of this invention to inhibit tumor growth in animals is studied in the athymic mouse xenograft standard pharmacological test. Female nu/nu mice in an outbred albino background are obtained from Charles River Laboratories (Wilmington, Mass.). Animals are injected subcutaneously on the flank with the desired tumor cell suspension. Several days later, mice with tumors of approximately 150 mm^3 are selected from those injected (staged) and randomly distributed into groups of 5-10. The day of staging is called day 0. Compounds of the invention, usually formulated in saline (exceptions are noted in tables), are administered to animals by intravenous injection or oral gavage on various schedules starting on day 0 or 1, as noted in the tables. The control group in each experiment is dosed with vehicle on the same schedule. Tumor size is measured every 3-7 days with calipers in two orthogonal dimensions, and tumor volume is calculated from the formula volume=[(length×width^2)/2].
Tumor/Control (T/C) is obtained by dividing the mean tumor volume of the treated group by the mean tumor volume of the control group on each measurement day. A treatment dose is defined as active if it produced a statistically significant T/C of 0.50 or less. A p value≦0.05, determined by one-side Student's t-test, is required for statistical significance. A treatment dose is defined as toxic if more than 10% of the animals died from a compound-related toxicity.

## CNCCCOc1cc(F)c(-c2c(Cl)nc3ncnn3c2NCC(F)(F)F)c(F)c1.Cl [Example 3a, 5-Chloro-6-{2,6-difluoro-4-[3-(methylamino)propoxy]phenyl}-N-(2,2,2-trifluoroethyl)[1,2,4]triazolo[1,5-a]pyrimidin-7-amine hydrogen chloride Salt]
HeLa cells; 20 nM
  Percent in Cell Cycle Phase >4N: 1%
  Percent in Cell Cycle Phase Apop: 29%
  Percent in Cell Cycle Phase G1: 42%
  Percent in Cell Cycle Phase G2/M: 16%
  Percent in Cell Cycle Phase S: 12%
HeLa cells; 30 nM
  Percent in Cell Cycle Phase >4N: 2%
  Percent in Cell Cycle Phase Apop: 55%
  Percent in Cell Cycle Phase G1: 11%
  Percent in Cell Cycle Phase G2/M: 21%
  Percent in Cell Cycle Phase S: 11%
HeLa cells; 40 nM
  Percent in Cell Cycle Phase >4N: 3%
  Percent in Cell Cycle Phase Apop: 50%
  Percent in Cell Cycle Phase G1: 6%
  Percent in Cell Cycle Phase G2/M: 31%
  Percent in Cell Cycle Phase S: 10%
HeLa cells; 50 nM
  Percent in Cell Cycle Phase >4N: 3%
  Percent in Cell Cycle Phase Apop: 32%
  Percent in Cell Cycle Phase G1: 5%
  Percent in Cell Cycle Phase G2/M: 52%
  Percent in Cell Cycle Phase S: 8%
HeLa cells; 60 nM
  Percent in Cell Cycle Phase >4N: 4%
  Percent in Cell Cycle Phase Apop: 25%
  Percent in Cell Cycle Phase G1: 4%
  Percent in Cell Cycle Phase G2/M: 58%
  Percent in Cell Cycle Phase S: 9%
HeLa cells; 70 nM
  Percent in Cell Cycle Phase >4N: 4%
  Percent in Cell Cycle Phase Apop: 21%
  Percent in Cell Cycle Phase G1: 5%
  Percent in Cell Cycle Phase G2/M: 61%
  Percent in Cell Cycle Phase S: 9%
HeLa cells; 80 nM
  Percent in Cell Cycle Phase >4N: 5%
  Percent in Cell Cycle Phase Apop: 24%
  Percent in Cell Cycle Phase G1: 5%
  Percent in Cell Cycle Phase G2/M: 57%
  Percent in Cell Cycle Phase S: 11%
HeLa cells; 90 nM
  Percent in Cell Cycle Phase >4N: 4%
  Percent in Cell Cycle Phase Apop: 23%
  Percent in Cell Cycle Phase G1: 5%
  Percent in Cell Cycle Phase G2/M: 60%
  Percent in Cell Cycle Phase S: 8%
HeLa cells; 100 nM
  Percent in Cell Cycle Phase >4N: 5%
  Percent in Cell Cycle Phase Apop: 25%
  Percent in Cell Cycle Phase G1: 5%
  Percent in Cell Cycle Phase G2/M: 55%
  Percent in Cell Cycle Phase S: 10%
HeLa cells; 110 nM
  Percent in Cell Cycle Phase >4N: 5%
  Percent in Cell Cycle Phase Apop: 26%
  Percent in Cell Cycle Phase G1: 6%
  Percent in Cell Cycle Phase G2/M: 54%
  Percent in Cell Cycle Phase S: 10%
HeLa cells; 120 nM
  Percent in Cell Cycle Phase >4N: 5%
  Percent in Cell Cycle Phase Apop: 30%
  Percent in Cell Cycle Phase G1: 6%
  Percent in Cell Cycle Phase G2/M: 48%
  Percent in Cell Cycle Phase S: 12%
[1]; 10 mg/kg PO
  T/C on day 0: 0.99
  T/C on day 3: 1.08
  T/C on day 7: 0.85
  T/C on day 10: 0.69**
  T/C on day 13: 0.52**
  T/C on day 17: 0.51**
[1]; 20 mg/kg PO
  T/C on day 0: 1.01
  T/C on day 3: 0.90
  T/C on day 7: 0.73
  T/C on day 10: 0.63**
  T/C on day 13: 0.42**
  T/C on day 17: 0.39**
[1]; 40 mg/kg PO
  T/C on day 0: 1.02
  T/C on day 3: 0.73
  T/C on day 7: 0.65**
  T/C on day 10: 0.48**
  T/C on day 13: 0.30**
  T/C on day 17: 0.20**
[1]; U-87 MG, oral dosing, 40, 20, and 10 mg/kg
  tumor growth inhibition (activity call): active
